Test results taken from ChEMBL document CHEMBL4680148, “Semisynthesis and biological evaluation of amidochelocardin derivatives as broad-spectrum antibiotics” (Eur J Med Chem, 2020).
≈ marks a conversion by molar mass, not a printed value.

Legend:
Klebsiella pneumoniae [1] = assay: Antibacterial activity against Klebsiella pneumoniae DSM-30104 assessed as minimum inhibitory concentration required for inhibition of bacterial growth measured after 18 hrs by microdilution method; assay type: functional
Pseudomonas aeruginosa [2] = assay: Antibacterial activity against Pseudomonas aeruginosa PA14 delta mexAB assessed as minimum inhibitory concentration required for inhibition of bacterial growth measured after 18 hrs by microdilution method; assay type: functional
Pseudomonas aeruginosa [3] = assay: Antibacterial activity against Pseudomonas aeruginosa PA14 assessed as minimum inhibitory concentration required for inhibition of bacterial growth measured after 18 hrs by microdilution method; assay type: functional
Staphylococcus aureus [4] = assay: Antibacterial activity against Staphylococcus aureus DSM-11822 assessed as minimum inhibitory concentration required for inhibition of bacterial growth measured after 18 hrs by microdilution method; assay type: functional
Escherichia coli [5] = assay: Antibacterial activity against Escherichia coli assessed as minimum inhibitory concentration required for inhibition of bacterial growth in presence of outer membrane permeabilizer PMBN measured after 18 hrs by microdilution method; assay type: functional
Escherichia coli [6] = assay: Antibacterial activity against Escherichia coli assessed as minimum inhibitory concentration required for inhibition of bacterial growth measured after 18 hrs by microdilution method; assay type: functional
Enterococcus faecium = assay: Antibacterial activity against Enterococcus faecium DSM-20477 assessed as minimum inhibitory concentration required for inhibition of bacterial growth measured after 18 hrs by microdilution method; assay type: functional
Escherichia coli [7] = assay: Antibacterial activity against Escherichia coli DSM-1116 assessed as minimum inhibitory concentration required for inhibition of bacterial growth measured after 18 hrs by microdilution method; assay type: functional
[8] = Stability of the compound in Escherichia coli growth medium assessed as intact compound by LC-MS analysis; assay type: physicochemical
[9] = Stability of the compound in Escherichia coli assessed as intact compound by LC-MS analysis; assay type: ADME
Escherichia coli [10] = assay: Antibacterial activity against Escherichia coli DSM-1116 assessed as minimum inhibitory concentration required for inhibition of bacterial growth in presence of outer membrane permeabilizer PMBN measured after 18 hrs by microdilution method; assay type: functional
Staphylococcus aureus [11] = assay: Antibacterial activity against Staphylococcus aureus Newman assessed as minimum inhibitory concentration required for inhibition of bacterial growth measured after 18 hrs by microdilution method; assay type: functional
Staphylococcus aureus [12] = assay: Antibacterial activity against Staphylococcus aureus DSM-346 assessed as minimum inhibitory concentration required for inhibition of bacterial growth measured after 18 hrs by microdilution method; assay type: functional
Pseudomonas aeruginosa [13] = assay: Antibacterial activity against Pseudomonas aeruginosa DSM-1128 assessed as minimum inhibitory concentration required for inhibition of bacterial growth measured after 18 hrs by microdilution method; assay type: functional
Klebsiella pneumoniae [14] = assay: Antibacterial activity against Klebsiella pneumoniae DSM-30104 assessed as minimum inhibitory concentration required for inhibition of bacterial growth in presence of outer membrane permeabilizer PMBN measured after 18 hrs by microdilution method; assay type: functional
Pseudomonas aeruginosa [15] = assay: Antibacterial activity against Pseudomonas aeruginosa PA14 delta mexAB assessed as minimum inhibitory concentration required for inhibition of bacterial growth in presence of outer membrane permeabilizer PMBN measured after 18 hrs by microdilution method; assay type: functional

| SMILES | MIC (Klebsiella pneumoniae [1]) [µg/mL] | MIC (Pseudomonas aeruginosa [2]) [µg/mL] | MIC (Pseudomonas aeruginosa [3]) [µg/mL] | MIC (Staphylococcus aureus [4]) [µg/mL] | MIC (Enterococcus faecium) [µg/mL] | MIC (Staphylococcus aureus [11]) [µg/mL] | other results |
| --- | --- | --- | --- | --- | --- | --- | --- |
| COc1ccc(C(=O)N[C@H]2C(O)=C(C(N)=O)C(=O)[C@@]3(O)C(=O)c4c(c(C)c5ccc(C)c(O)c5c4O)C[C@@H]23)cc1 | > 64 | 64 (≈ 117 µM) | > 64 | 4 (≈ 7.32 µM) | – | – | – |
| COc1ccc(-c2cc(C)c(O)c3c(O)c4c(c(C)c23)C[C@H]2[C@@H](N)C(O)=C(C(N)=O)C(=O)[C@@]2(O)C4=O)cc1 | > 64 | – | > 64 | 1 (≈ 1.93 µM) | – | – | MIC (Escherichia coli [5]): 2 µg/mL; MIC (Escherichia coli [6]): 32 µg/mL (≈ 61.7 µM) |
| Cc1ccc2c(C)c3c(c(O)c2c1O)C(=O)[C@]1(O)C(=O)C(C(N)=O)=C(O)[C@H](NS(C)(=O)=O)[C@@H]1C3 | > 64 | – | > 64 | > 64 | 32 (≈ 65.2 µM) | – | – |
| Cc1ccc2c(C)c3c(c(O)c2c1O)C(=O)[C@]1(O)C(=O)C(C(N)=O)=C(O)[C@H](N)[C@@H]1C3.O=C([O-])CC(O)(CC(=O)[O-])C(=O)[O-].[Na+].[Na+].[Na+] | 2 | 0.5 | 16 | 8 | 4 | – | MIC (Escherichia coli [7]): 0.5 µg/mL; Stabilty [8]: Unstable; Stabilty [9]: Unstable |
| Cc1ccc2c(C)c3c(c(O)c2c1O)C(=O)[C@]1(O)C(=O)C(C(N)=O)=C(O)[C@H](NC(=O)CCN)[C@@H]1C3 | – | 32 (≈ 66.2 µM) | – | – | > 64 | 64 (≈ 132 µM) | MIC (Escherichia coli [10]): 8 µg/mL; MIC (Escherichia coli [7]): 16 µg/mL (≈ 33.1 µM) |
| Cc1ccc2c(C)c3c(c(O)c2c1O)C(=O)[C@]1(O)C(=O)C(C(N)=O)=C(O)[C@H](N(C)C)[C@@H]1C3 | > 64 | – | > 64 | – | > 64 | – | MIC (Staphylococcus aureus [12]): > 64 µg/mL |
| Cc1ccc2c(C)c3c(c(O)c2c1O)C(=O)[C@]1(O)C(=O)C(C(N)=O)=C(O)[C@H](NC(=O)CN2CCN(C)CC2)[C@@H]1C3 | – | 32 (≈ 57.9 µM) | – | – | > 64 | > 64 | MIC (Escherichia coli [10]): 32 µg/mL; MIC (Escherichia coli [7]): 54 µg/mL (≈ 97.7 µM) |
| Cc1ccc2c(C)c3c(c(O)c2c1O)C(=O)[C@]1(O)C(=O)C(C(N)=O)=C(O)[C@H](N2C(=O)c4ccccc4C2=O)[C@@H]1C3 | > 64 | > 64 | > 64 | 0.125 (≈ 0.23 µM) | – | – | MIC (Escherichia coli [5]): 0.5 µg/mL; MIC (Escherichia coli [6]): > 64 µg/mL |
| Cc1cc(Cl)c2c(C)c3c(c(O)c2c1O)C(=O)[C@]1(O)C(=O)C(C(N)=O)=C(O)[C@H](N)[C@@H]1C3 | 8 (≈ 17.9 µM) | – | – | – | – | 4 (≈ 8.95 µM) | MIC (Pseudomonas aeruginosa [13]): 16 µg/mL (≈ 35.8 µM); MIC (Klebsiella pneumoniae [14]): 8 µg/mL |
| CC(=O)N[C@H]1C(O)=C(C(N)=O)C(=O)[C@@]2(O)C(=O)c3c(c(C)c4ccc(C)c(O)c4c3O)C[C@@H]12 | > 64 | – | > 64 | > 64 | 32 (≈ 70.4 µM) | – | – |
| Cc1cc(F)c2c(C)c3c(c(O)c2c1O)C(=O)[C@]1(O)C(=O)C(C(N)=O)=C(O)[C@H](N)[C@@H]1C3 | 8 (≈ 18.6 µM) | 4 (≈ 9.29 µM) | 8 (≈ 18.6 µM) | 4 (≈ 9.29 µM) | – | – | – |
| Cc1cc([N+](=O)[O-])c2c(C)c3c(c(O)c2c1O)C(=O)[C@]1(O)C(=O)C(C(N)=O)=C(O)[C@H](N)[C@@H]1C3 | > 64 | – | > 64 | > 64 | > 64 | – | – |
| CN[C@H]1C(O)=C(C(N)=O)C(=O)[C@@]2(O)C(=O)c3c(c(C)c4ccc(C)c(O)c4c3O)C[C@@H]12 | > 64 | – | > 64 | – | > 64 | – | MIC (Staphylococcus aureus [12]): > 64 µg/mL |
| CC(=O)Oc1c(C)ccc2c(C)c3c(c(O)c12)C(=O)[C@]1(O)C(=O)C(C(N)=O)=C(O)[C@H](N)[C@@H]1C3 | – | – | – | – | 16 (≈ 35.2 µM) | 16 (≈ 35.2 µM) | MIC (Escherichia coli [7]): 8 µg/mL (≈ 17.6 µM); Stabilty [8]: Stable; Stabilty [9]: Stable; MIC (Pseudomonas aeruginosa [15]): 1 µg/mL |
| CC(=O)C1=C(O)[C@H](N)[C@@H]2Cc3c(c(O)c4c(O)c(C)ccc4c3C)C(=O)[C@]2(O)C1=O.O=C([O-])CC(O)(CC(=O)[O-])C(=O)[O-].[Na+].[Na+].[Na+] | 2 | 4 | 64 | 8 | 8 | – | MIC (Escherichia coli [7]): 2 µg/mL |
| C=CC(=O)N[C@H]1C(O)=C(C(N)=O)C(=O)[C@@]2(O)C(=O)c3c(c(C)c4ccc(C)c(O)c4c3O)C[C@@H]12 | – | > 64 | – | – | 8 (≈ 17.2 µM) | 4 (≈ 8.58 µM) | MIC (Escherichia coli [10]): 2 µg/mL; MIC (Escherichia coli [7]): 32 µg/mL (≈ 68.6 µM) |
| Cc1cc(C)c(-c2cc(C)c(O)c3c(O)c4c(c(C)c23)C[C@H]2[C@@H](N)C(O)=C(C(N)=O)C(=O)[C@@]2(O)C4=O)c(C)c1 | 32 (≈ 60.3 µM) | – | > 64 | 0.5 (≈ 0.942 µM) | – | – | MIC (Escherichia coli [5]): 8 µg/mL; MIC (Escherichia coli [6]): > 64 µg/mL |
| CC1=CC(=O)c2c(C)c3c(c(O)c2C1=O)C(=O)[C@]1(O)C(=O)C(C(N)=O)=C(O)[C@H](N)[C@@H]1C3 | > 64 | – | – | – | – | 32 (≈ 75.1 µM) | MIC (Pseudomonas aeruginosa [13]): > 64 µg/mL; MIC (Klebsiella pneumoniae [14]): 64 µg/mL |
| Cc1ccc2c(C)c3c(c4c2c1O[Si](C(C)(C)C)(C(C)(C)C)O4)C(=O)[C@]1(O)C(=O)C(C(N)=O)=C(O)[C@H](N)[C@@H]1C3 | > 64 | – | > 64 | 1 (≈ 1.81 µM) | – | – | MIC (Escherichia coli [5]): 8 µg/mL; MIC (Escherichia coli [6]): 64 µg/mL (≈ 116 µM) |
| Cc1ccc2c(C)c3c(c(O)c2c1OC(=O)c1ccc(Br)cc1)C(=O)[C@]1(O)C(=O)C(C(N)=O)=C(O)[C@H](N)[C@@H]1C3 | – | – | – | – | 4 (≈ 6.72 µM) | 4 (≈ 6.72 µM) | MIC (Escherichia coli [10]): 64 µg/mL; MIC (Escherichia coli [7]): > 64 µg/mL; Stabilty [8]: Stable; Stabilty [9]: Stable; MIC (Pseudomonas aeruginosa [15]): > 64 µg/mL |
| Cc1ccc2c(C)c3c(c(O)c2c1O)C(=O)[C@]1(O)C(=O)C(C(N)=O)=C(O)[C@H](N2C(=O)C=CC2=O)[C@@H]1C3 | 64 (≈ 130 µM) | > 64 | > 64 | 2 (≈ 4.06 µM) | – | – | MIC (Escherichia coli [5]): 8 µg/mL; MIC (Escherichia coli [6]): > 64 µg/mL |
| Cc1cc(Br)c2c(C)c3c(c(O)c2c1O)C(=O)[C@]1(O)C(=O)C(C(N)=O)=C(O)[C@H](N)[C@@H]1C3 | 8 (≈ 16.3 µM) | – | – | – | – | 8 (≈ 16.3 µM) | MIC (Pseudomonas aeruginosa [13]): 32 µg/mL (≈ 65.1 µM); MIC (Klebsiella pneumoniae [14]): 4 µg/mL |
| CCOC(=O)N[C@H]1C(O)=C(C(N)=O)C(=O)[C@@]2(O)C(=O)c3c(c(C)c4ccc(C)c(O)c4c3O)C[C@@H]12 | 16 (≈ 33 µM) | 64 (≈ 132 µM) | > 64 | 2 (≈ 4.13 µM) | – | – | – |
| Cc1ccc2c(C)c3c(c(O)c2c1O)C(=O)[C@]1(O)C(=O)C(C(N)=O)=C(O)[C@H](NC(=O)OCc2ccccc2)[C@@H]1C3 | > 64 | – | > 64 | > 64 | 0.25 (≈ 0.457 µM) | – | – |
